Results reported in patent US7968733B2, “Pyrrolidine analogue for preventing neurogenic pain and method for production thereof” (priority 2006, dated 2011).

What was measured:
[1] = tested on: acromelic acid-induced allodynia; experiment: Evaluation of allodynia-inhibitory activity (intrathecal co-administration with acromelic acid); assay type: in vivo, ddY-mouse; conditions: for allodynia-inhibitory activity: intrathecal, 5 μl solution with 1×10^−15 gram of acromelic acid plus pyrrolidine derivative, ddY-mouse male, allodynia scored 0 to 2 every 5 minutes for 50 minutes, percent of control, FIGS. 1-3; for dose suppressing allodynia induction with equal potency, relative to the compounds of Comparative Examples 5 and 6: fraction of the doses of Comparative Examples 5 and 6, intrathecal with acromelic acid, ddY-mouse, FIG. 3
Procedure: In the evaluation, according to the method of Hylden & Wilcox (Hylden, J. L. K. and Wilcox, G. L., Intrathecal morphine in mice: a new technique, Eur. J. Pharmacol, 67 (1980) 313-316.), 5 μl of a solution containing 1×10^−15 gram of acromelic acid and a different dose of pyrrolidine derivative was administrated to ddY-mouse (male, weight 22±2 g) under an unanesthetized condition. One experimental group consisted of 6 mice, and a solution containing 1×10^−15 gram of acromelic acid (5 μl ) was administrated in control groups. After the compound was intrathecally administered, allodynia was assessed once every 5 minutes for 50 minutes by scoring the response in rank order from 0 to 2, and expressed as a percent of the values in control groups, similarly to the method of Yaksh & Harty et al. (Yaksh, T. L. and Harty, G. J., Pharmacology of the allodynia in rats evoked by high dose intrathecal morphine, J. Pharmacol. Exp. Ther., 244 (1988) 501-507.). Allodynic response was ranked as follows: 0, no response; 1, mild squeaking with attempts to move away from the stroking probe; 2, vigorous squeaking evoked by the stroking probe, biting at the probe or strong efforts to escape.

allodynia = conditions: intrathecal administration in mice; Non-patent documents 1 and 4; cited from earlier work

Row | Compound | allodynia-inhibitory activity [1] | allodynia-inducing activity (allodynia) | dose suppressing allodynia induction with equal potency, relative to the compounds of Comparative Examples 5 and 6 [1]
1 | O=C(O)c1ccc(O[C@@H]2CN[C@H](C(=O)O)C2)cc1 [Example 9, (2S,4S)-4-(4-carboxyphenoxy)pyrrolidine-2-carboxylate] | strong allodynia-inhibitory activity | – | –
2 | [N-]=[N+]=Nc1ccc(O[C@H]2CN[C@H](C(=O)O)[C@H]2CC(=O)O)c(I)c1 [proline analogue (a)] | – | the same degree of allodynia-inducing activity as that of acromelic acids | –
3 | Cc1ccc(S[C@H]2CN[C@H](C(=O)O)C2)cc1 [Example 19, (2S,4R)-4-(4-methylphenylthio)pyrrolidine-2-carboxylate] | strong allodynia-inhibitory activity | – | approximately one-hundredth
4 | Cc1ccc(S[C@H]2CN[C@H](C(=O)O)[C@H]2CC(=O)O)cc1 [Example 14, (2S,3R,4R)-3-(carboxymethyl)-4-(4-methylphenylthio)-pyrrolidine-2-carboxylate] | strong allodynia-inhibitory activity | – | approximately one-hundredth
5 | O=C(O)C[C@@H]1[C@@H](C(=O)O)NC[C@H]1Oc1ccccc1C(=O)O [Example 5, (2S,3R,4S)-3-(carboxymethyl)-4-(2-carboxyphenoxy)-pyrrolidine-2-carboxylate] | strong allodynia-inhibitory activity | – | –
6 | acromelic acids | – | induce severe allodynia | –
7 | Cc1ccc(O[C@@H]2CN[C@H](C(=O)O)[C@H]2CC(=O)O)c(C(=O)O)c1 [Example 8, (2S,3R,4S)-3-carboxymethyl-4-(2-carboxy-4-methyl-phenoxy)pyrrolidine-2-carboxylate] | strong allodynia-inhibitory activity | – | approximately one-hundredth
8 | O=C(O)C[C@@H]1[C@@H](C(=O)O)NC[C@H]1Oc1ccc(C(=O)O)cc1 [Example 1, (2S,3R,4S)-3-carboxymethyl-4-(4-carboxyphenoxy)-pyrrolidine-2-carboxylic acid] | strong allodynia-inhibitory activity | – | –
9 | COc1ccc(S[C@H]2CN[C@H](C(=O)O)[C@H]2CC(=O)O)cc1 [Example 13, (2S,3R,4R)-3-(carboxymethyl)-4-(4-methoxyphenylthio)-pyrrolidine-2-carboxylate] | strong allodynia-inhibitory activity | – | –
10 | O=C(O)C[C@H]1[C@@H](Sc2ccccc2)CN[C@@H]1C(=O)O [Example 18, (2S,3R,4R)-3-carboxy-methyl-4-phenylthiopyrrolidine-2-carboxylate] | strong allodynia-inhibitory activity | – | –
